Data published in US9642874B2, “Compositions of selenoorganic compounds and methods of use thereof” (Alltech, Inc., priority 2014, dated 2017).

What was measured:
Foxo3 = assay: Western blot of Foxo3 / pFoxo3T32 in AML-12 cells; assay type: cell-based, mouse; details: individual compound, 150 ppb, serum-containing media, 6 hours and 24 hours
Method: (§1) For the studies of protein expression, AML-12 cells were amplified in ITS, Dex and FBS-containing DMEM/F12 media, and cultured on 6-well (3.33×10^5 cells/well) plates in 10% FBS ITS-free DMEM/F12 media with or without Dex overnight. These cells were treated with control (water) or various compounds in either serum containing (10% FBS ITS-free DMEM/F12 media supplemented with Dex) or serum-free (ITS/Dex-free DMEM/F12 media) for 6 hours and 24 hours. In addition, human neuroblast IMR-32 cells were cultured in 10% FBS EMEM media and then treated with control (water), selenium compounds and their sulfur analogs in the same serum-containing media for 6 hours and 24 hours.
(§2) AML-12 liver cells or IMR-32 neuronal cells were seeded on 6-well plates, and then treated with vehicle and various compounds for 6 hours and 24 hours, as described herein. […] Protein levels in the supernatant of these cell lysates were determined using the Pierce Micro-BCA protein assay kit (Thermo Scientific-Piece Biotechnology, Rockford, Ill.) according to the manufacturer's protocol. […]
(§3) All primary antibodies except Actb (Li-COR, Lincoln, Nebr.), Elf2bε and pElf2bε (Abcam, Cambridge, Mass.) were purchased from Cell Signaling Inc. Positive signals on the membrane blots were detected using the Amersham's enhanced chemiluminescence Western Blotting Prime Detection reagents (GE healthcare Lifescience, Pittsburgh, Pa.). Images of luminescence signals on the membrane blots were captured using the LI-COR Odyssey Fc Image system (Lincoln, Nebr.). […] Protein band densities in the Western blots were determined using the Li-COR Image studio software or NIH ImageJ software and then normalized by Actb level in each sample. […]
(§4) To determine if the combination of Compounds CDE can regulate FOXO phosphorylation in the liver, AML-12 cells were treated with control, and 150 ppb of selenium Compounds CDE, and their sulfur analogs, 150 ppb of Compounds HIJ, in serum- and Dex-containing media but without ITS for 6 hours. […] Quantitative data of protein expression in Western blots are presented as mean±SEM of 3 samples. […]

Foxo4 = assay: Western blot of Foxo4 / pFoxo4T28 in AML-12 cells; assay type: cell-based, mouse; details: individual compound, 150 ppb, serum-containing media, 6 hours and 24 hours
Method: as §1, §2, §3, §4

SMILES | pFoxo3T32 protein levels (Foxo3) | pFoxo4T28 protein levels (Foxo4)
Nc1ncnc2c1ncn2[C@@H]1O[C@H](C[Se]CC[C@@H](N)C(=O)O)C(O)C1O (stereo partly drawn) [Compound D, 5′-Selenoadenosyl homocysteine] | No change | No change
C[Se]C[C@H]1O[C@@H](n2cnc3c(N)ncnc32)C(O)C1O (stereo in doubt) [Compound C, 5′-Methylselenoadenosine] | No change | No change
C[Se]C[C@H](NC(=O)CC[C@H](N)C(=O)O)C(=O)O [Compound E, γ-L-glutamyl-Se-methyl-L-selenocysteine] | No change | No change
